Measurements taken from patent publication US20210251234A1 (priority 2015, published 2021).
Where two headings read alike, the source gives them in different places.

Key:
Bactericera cockerelli = Bactericera cockerelli population dynamic (adults, nymphs, eggs) in potato field trial; format: in vivo; conditions: for average of registered adults: B. cockerelli adults, four-repetitions average; for B. Cokerelli eggs population average / Average of registered B.cokerelli nymphs: average of four repetitions
From the text: (§1) The seeding was made on June 10. The potato variety used was Caesar, third-category tubercles were used. A soil application was made to all the treatments when fluoxastrobin fungicides were applied; 2-litters dose or commercial product per hectare, and penfuflen 0.650 litters dose per hectare; in order to prevent Fusarium spp. and/or Rhizoctoniasolani fungus attack. The experimental design used was random blocks with four repetitions; the experimental parcel was formed by four furrows at a distance between furrows of 0.92 m, and 10 meters length. The useful parcel consisted in two central furrows of each experimental parcel. Distance between plants was 0.25 m.
(§2) The applied treatments consisted in an application on the bottom of the furrow when the seeding was taking place, and eleven foliar applications.
Bactericera cockerelli, Population Dynamic: Studies on adult psilides, nymphs and eggs were population dynamic were made. For which purpose a count was made before the first foliar application and subsequently after each treatment application. To know the number of adults 20 net traps (with entomologic net) per experimental parcel, in each evaluation. To determine the number of eggs and nymphs, 50 pinnas were evaluated per parcel in each evaluation.

[1] = test system: Zebra chip/purple top (Candidatus Liberibacter solanacearum / Candidatus Phytoplasma americanum); format: in vivo; conditions: relative to untreated treatment 1
[2] = test system: Zebra chip/purple top (Candidatus Liberibacter solanacearum); format: in vivo; conditions: cross cut tubercles, relative to untreated
potato variety Caesar [3] = experiment: Cultivation emergence (germination) in potato field trial; format: in vivo, potato (Solanum tuberosum); conditions: 22 days after seeding, plants emerged in central furrows
From the text: as §1, §2
Emergence: Cultivation emergence was determined; for which the number of plants that emerged in each parcel central furrows was counted at 100% emergence. The data were collected on Jul. 2, 2014 (22 days after seeding).

potato variety Caesar [4] = experiment: Potato tubercle production at harvest; format: in vivo, potato (Solanum tuberosum); conditions: for Total production in Kilograms per parcel, Average: all categories, harvest; for Production in Kilograms per treatment categories: Combined: combined quality category; for Production in Kilograms per treatment categories: First: first quality category; for Production in Kilograms per treatment categories: Third: third quality category
From the text: as §1, §2
Production: In harvest, each treatment production was analyzed, for which two lineal meters were harvested of each experimental parcel central furrows, registering the potato tubercles production for each of the four categories (first, second, third and combined).

[5] = test system: Zebra chip (Candidatus Liberibacter solanacearum); format: in vivo; conditions: fried slices, under heading Flake Burning Severity

In the case of N#Cc1ccccc1NC(=O)c1snc(Cl)c1Cl [Treatment 3, Isotianil], the “average of registered adults” value (Bactericera cockerelli; 02-Sep., listed as T3) was 1.75, the “average of registered adults” value (Bactericera cockerelli; 5-Aug., 20 net traps per parcel, listed as T3) was 1 and the “average of registered adults” value (Bactericera cockerelli; 08-sep., listed as T3) was 0.5. For the same molecule, the “average of registered adults” value (Bactericera cockerelli; 12-Aug., listed as T3) was 1.25, the “average of registered adults” value (Bactericera cockerelli; 18-Aug., listed as T3) was 3.75 and the “average of registered adults” value (Bactericera cockerelli; 19-Sep., listed as T3) was 4.75. For the same molecule, the “B. Cokerelli eggs population average” value (Bactericera cockerelli; 08-sep., listed as T3) was 1.25, the “B. Cokerelli eggs population average” value (Bactericera cockerelli; 12-August, listed as T3) was 1.5 and the “Average of registered B.cokerelli nymphs” value (Bactericera cockerelli; 02-Sep., listed as T3) was 4.5. For the same molecule, the “Average of registered B.cokerelli nymphs” value (Bactericera cockerelli; 08-sep., listed as T3) was 3, the “Average of registered B.cokerelli nymphs” value (Bactericera cockerelli; 12-Aug., listed as T3) was 0 and the “Average of registered B.cokerelli nymphs” value (Bactericera cockerelli; 18-Aug., listed as T3) was 0. For the same molecule, the “Zebra chip/purple top incidence control percentage” value ([1]; listed as 3) was 14.35%, the “tubercle staining Incidence Control Percentage” value ([2]; listed as 3) was 35.01% and the “tubercle staining Severity Control Percentage” value ([2]; listed as 3) was 43.13%. The “Emergence Percentage” value (potato variety Caesar [3]; listed as 3) was 61.2%, the “Total production in Kilograms per parcel, Average” value (potato variety Caesar [4]; listed as 3) was 17.975 Kilograms per parcel and the “Production in Kilograms per treatment categories: Combined” value (potato variety Caesar [4]; listed as 3) was 39.8 Kilograms. For the same molecule, the “Production in Kilograms per treatment categories: First” value (potato variety Caesar [4]; listed as 3) was 0 Kilograms, the “Production in Kilograms per treatment categories: Third” value (potato variety Caesar [4]; listed as 3) was 24.3 Kilograms and the “Flake burning Incidence control percentage” value ([5]; listed as 3) was 31.3%.
In the case of N#Cc1ccccc1NC(=O)c1snc(Cl)c1Cl [Treatment 4, Isotianil], the “average of registered adults” value (Bactericera cockerelli; 02-Sep., listed as T4) was 0.25, the “average of registered adults” value (Bactericera cockerelli; 5-Aug., 20 net traps per parcel, listed as T4) was 0.75 and the “average of registered adults” value (Bactericera cockerelli; 08-sep., listed as T4) was 0. The “average of registered adults” value (Bactericera cockerelli; 12-Aug., listed as T4) was 2, the “average of registered adults” value (Bactericera cockerelli; 18-Aug., listed as T4) was 1 and the “average of registered adults” value (Bactericera cockerelli; 19-Sep., listed as T4) was 2.75. For the same molecule, the “B. Cokerelli eggs population average” value (Bactericera cockerelli; 02-Sep.) was 0, the “B. Cokerelli eggs population average” value (Bactericera cockerelli; 5-August, 50 pinnas per parcel) was 0 and the “B. Cokerelli eggs population average” value (Bactericera cockerelli; 08-sep., listed as T4) was 0.75. The “B. Cokerelli eggs population average” value (Bactericera cockerelli; 12-August, listed as T4) was 4.5, the “B. Cokerelli eggs population average” value (Bactericera cockerelli; 18-August) was 0 and the “B. Cokerelli eggs population average” value (Bactericera cockerelli; 19-Sep.) was 0. The “Average of registered B.cokerelli nymphs” value (Bactericera cockerelli; 02-Sep., listed as T4) was 13.75, the “Average of registered B.cokerelli nymphs” value (Bactericera cockerelli; 5-Aug., 50 pinnas per parcel) was 0 and the “Average of registered B.cokerelli nymphs” value (Bactericera cockerelli; 08-sep., listed as T4) was 0. The “Average of registered B.cokerelli nymphs” value (Bactericera cockerelli; 12-Aug., listed as T4) was 2.25, the “Average of registered B.cokerelli nymphs” value (Bactericera cockerelli; 18-Aug., listed as T4) was 0.25 and the “Average of registered B.cokerelli nymphs” value (Bactericera cockerelli; 19-Sep.) was 0. For the same molecule, the “Zebra chip/purple top incidence control percentage” value ([1]; listed as 4) was 62.65%, the “tubercle staining Incidence Control Percentage” value ([2]; listed as 4) was 63.35% and the “tubercle staining Severity Control Percentage” value ([2]; listed as 4) was 74.50%. For the same molecule, the “Emergence Percentage” value (potato variety Caesar [3]; listed as 4) was 71.8%, the “Total production in Kilograms per parcel, Average” value (potato variety Caesar [4]; listed as 4) was 21.3 Kilograms per parcel and the “Production in Kilograms per treatment categories: Combined” value (potato variety Caesar [4]; listed as 4) was 37.7 Kilograms. The “Production in Kilograms per treatment categories: First” value (potato variety Caesar [4]; listed as 4) was 4 Kilograms, the “Production in Kilograms per treatment categories: Second” value (potato variety Caesar [4]; second quality category) was 7.8 Kilograms and the “Production in Kilograms per treatment categories: Third” value (potato variety Caesar [4]; listed as 4) was 35.7 Kilograms. The “Flake burning Incidence control percentage” value ([5]; listed as 4) was 54%.
